What was measured:
HUVEC = assay: Proliferation of endothelial cells HUVEC with FGF-2; type: cell-based; conditions: Homo sapiens, FGF-2 25 ng/ml, 96 hours, read-out: Cell growth suppression, IC50
Procedure: Endothelial cells HUVEC were sawn in 96-cavity plates and cultivate for 24 hours. After that, the following was added to the cells: • 1) inhibitor RPT835, or • 2) inhibitor described by Formula IX in this invention, or • 3) brivanib—multi-kinase inhibitor of FGFR/VEGFR, and also to all cells—FGF-2 in a concentration of 25 ng/ml.
The cells were cultivated for 96 hours in general and then were calculated.

[1] = test system: collagen-induced arthritis; assay: Collagen-induced arthritis model; type: in vivo; conditions: mice, 100 mg/kg through a tube for 40 days
Procedure: Collagen-induced arthritis model was used in the research. Arthritic was induced in mice by intradermal injections of collagen of the II type combined with Freund's adjuvant. The mice were randomized into 2 groups of 5 animals in each one: • group 1: control, water through a tube for 40 days. • group 2: inhibitor described by formula III in this invention, 100 mg/kg, through a tube for 40 days. On the 40 day, the mice were subjected to euthanasia, the tissue was studied.

FRS2 [2] = target: T1, FRS2 (Homo sapiens, UniProt Q8WU20); assay: FRS2 phosphorylation in FGF-2-stimulated Snu16 cells (Western blotting); type: cell-based; design: endogenous in cells; host or cells: Snu16; conditions: FGF-2 stimulation
T1 sequence (Q8WU20 1-508): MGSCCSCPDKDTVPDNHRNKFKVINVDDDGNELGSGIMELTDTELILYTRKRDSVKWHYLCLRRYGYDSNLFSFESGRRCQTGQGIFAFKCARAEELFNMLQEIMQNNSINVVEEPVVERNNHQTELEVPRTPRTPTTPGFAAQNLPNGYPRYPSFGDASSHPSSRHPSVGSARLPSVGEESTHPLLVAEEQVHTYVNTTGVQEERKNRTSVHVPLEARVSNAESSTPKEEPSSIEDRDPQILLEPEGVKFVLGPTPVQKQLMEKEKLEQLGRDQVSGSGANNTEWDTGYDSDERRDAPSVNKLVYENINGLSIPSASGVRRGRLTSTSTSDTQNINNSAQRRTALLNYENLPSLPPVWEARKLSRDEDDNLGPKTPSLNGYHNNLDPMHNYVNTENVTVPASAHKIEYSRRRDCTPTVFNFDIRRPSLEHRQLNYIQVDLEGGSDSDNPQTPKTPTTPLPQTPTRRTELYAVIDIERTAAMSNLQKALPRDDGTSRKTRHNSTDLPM
Procedure: By way of chemical synthesis we received the specified compounds. Stomach cancer cells Snu16 expressing FGFR2 were cultivated according to the standard method. A part of the cells was left for negative control, FGF-2 was added to the other part (positive control). Therapeutic groups included: addition of the inhibitor according to formula V and subsequent stimulation of FGF-2, addition of the inhibitor according to formula IX and subsequent stimulation of FGF-2, addition of the inhibitor according to formula XI and subsequent stimulation of FGF-2. The Western-blotting method was used for assessment of the phosphorylation level of various kinases.

PI3K = assay: Western blotting of PI3K phosphorylation in HUVEC, Caki-1, KATO III cells; type: cell-based; conditions: P=0.017
Procedure: (§1) According to the procedure described above, the phosphorylation levels of type 1-3 fibroblast growth factor receptors, FRS2, and also phosphorylation levels of VEGFR1 and intracellular kinases PI3K, p44/42(MAPK), Akt, mTOR were analyzed by the Western-blotting method.
(§2) Endothelial cells HUVEC, human renal cell carcinoma of Caki-1 type, stomach cancer cells KATO III were used in the research. All the mentioned cells expressed various types of the mentioned receptors. Just like in Example 5, a part of the cells stimulated FGF-2 and/or VEGF-A, a part of the cells was cultivated with the inhibitor described by Formula VIII, a part of the cells left without stimulation and treatment.

FGFR2 [3] = target: FGFR2 (Homo sapiens, UniProt P21802); assay: Western blotting of FGFR2 phosphorylation in HUVEC, Caki-1, KATO III cells; type: cell-based
Procedure: as §1, §2

FGFR3 = target: T2, FGFR3 (Homo sapiens, UniProt P22607); assay: Western blotting of FGFR3 phosphorylation in HUVEC, Caki-1, KATO III cells; type: cell-based
T2 construct: endogenous in cells; host or cells: HUVEC, Caki-1, KATO III
Procedure: as §1, §2

VEGFR1 = target: T3, VEGFR1 (Homo sapiens, UniProt P17948); assay: Western blotting of VEGFR1 phosphorylation in HUVEC, Caki-1, KATO III cells; type: cell-based
T3 construct: endogenous in cells; host or cells: HUVEC, Caki-1, KATO III
Procedure: as §1, §2

FGFR1 = target: T4, FGFR1 (Homo sapiens, UniProt P11362); assay: Western blotting of FGFR1 phosphorylation in HUVEC, Caki-1, KATO III cells; type: cell-based
T4 construct: endogenous in cells; host or cells: HUVEC, Caki-1, KATO III
Procedure: as §1, §2

p44/42(MAPK), Akt, mTOR = assay: Western blotting of other kinases in HUVEC, Caki-1, KATO III cells; type: cell-based
Procedure: as §1, §2

FRS2 [4] = target: T1, FRS2; assay: Western blotting of FRS2 phosphorylation in HUVEC, Caki-1, KATO III cells; type: cell-based; design: endogenous in cells; conditions: P=0.001
Procedure: as §1, §2

FGFR2 [5] = assay: Automated Western blotting of FGFR2 phosphorylation in Snu16 cells; type: cell-based; conditions: 100 mcg/ml, FGF-2 stimulation
Procedure: (§3) Stomach cancer cells Snu16 were sawn in 96-cavity plates with a size of 90 mcl/cavity. After 24 hours of incubation in a damped incubator at a temperature of 37 C, 5% CO2 and 95% air to cells were the tested dissolved agent described by formula VI in the volume of 100 mcg/ml, and then FGF-2 was added as a stimulator.
(§4) After the days of cultivation by the method of automated Western-blotting, the phosphorylation level of the following proteins: FGFR2, FRS2α, FRS2β, Shp2, Grb2 was studied in the cells. After another 24 hours of the cultivation, the cells were counted.

FRS2α and FRS2β = assay: Automated Western blotting of FRS2α and FRS2β phosphorylation in Snu16 cells; type: cell-based; conditions: FGF-2 stimulation
Procedure: as §3, §4

Shp2 and Grb2 = assay: Automated Western blotting of Shp2 and Grb2 phosphorylation in Snu16 cells; type: cell-based; conditions: noted in some cells
Procedure: as §3, §4

Snu16 cells = assay: Proliferation of stomach cancer cells Snu16 (cell count); type: cell-based
Procedure: as §3, §4
After the next cultivation the number of the cells equaled between the groups, and also with the control (stimulation of FGF-2, without cultivation with the inhibitor). See the results in Table 1.

[6] = test system: angiogenesis stimulated by bFGF; assay: Matrigel implant angiogenesis stimulated by bFGF; type: in vivo, mice; conditions: Matrigel implants in mice; intraperitoneally day 0, 3, 6; RPT835 15 mg/kg, Bevacizumab 10 mg/kg
Procedure: (§5) Eighteen hybrid mice of the 1 generation F1 (C57B1/6×DBA/2), males with a weight of 22-30 g are used in the research. The mice (nomenclature number M02.13.00011) were received from a branch of nursery “Stolbovaya”. The method described earlier was used in the experiment [Passaniti A., 1992]. The control and experiment groups had at least 3 mice. Aliquots (1,000 mcl) of Matrigel (BD Biosciences) containing heparin 60 conventional units/ml, VEGF (200 ng/ml, BD Biosciences) or bFGF (100 ng/ml, BD Biosciences) were prepared on ice. Matrigel containing heparin 60 conventional units/ml was used as negative control. Matrigel was injected in the mice subcutaneously into the side part of the back. After injection, Matrigel quickly forms single, hard gel-like implant. A weight of the inhibitor was dissolved in DMSO to concentration of 10^−2M. Aliquots were frozen down to −20° C. and unfrozen immediately before injection. Refreezing of the solution was not allowed. The tested and standard objects were administered intraperitoneally on the 0, 3 and 6 day of Matrigel impintation: Bevacizumab in a dose of 10 mg/kg and RPT835-15 mg/kg. Seven days after administration of Matrigel, the mice were put into sleep with diethyl ether to remove the implant. The implants were fixed for 24-36 hours in 10% neutral formalin and enclosed in paraffin for further histological research.

[7] = test system: angiogenesis in the implants containing VEGF; assay: Matrigel implant angiogenesis stimulated by VEGF; type: in vivo; conditions: Matrigel implants in mice; 10 mg/kg intraperitoneally day 0, 3, 6; p<0.001
Procedure: as §5

T2 sequence (P22607 23-806): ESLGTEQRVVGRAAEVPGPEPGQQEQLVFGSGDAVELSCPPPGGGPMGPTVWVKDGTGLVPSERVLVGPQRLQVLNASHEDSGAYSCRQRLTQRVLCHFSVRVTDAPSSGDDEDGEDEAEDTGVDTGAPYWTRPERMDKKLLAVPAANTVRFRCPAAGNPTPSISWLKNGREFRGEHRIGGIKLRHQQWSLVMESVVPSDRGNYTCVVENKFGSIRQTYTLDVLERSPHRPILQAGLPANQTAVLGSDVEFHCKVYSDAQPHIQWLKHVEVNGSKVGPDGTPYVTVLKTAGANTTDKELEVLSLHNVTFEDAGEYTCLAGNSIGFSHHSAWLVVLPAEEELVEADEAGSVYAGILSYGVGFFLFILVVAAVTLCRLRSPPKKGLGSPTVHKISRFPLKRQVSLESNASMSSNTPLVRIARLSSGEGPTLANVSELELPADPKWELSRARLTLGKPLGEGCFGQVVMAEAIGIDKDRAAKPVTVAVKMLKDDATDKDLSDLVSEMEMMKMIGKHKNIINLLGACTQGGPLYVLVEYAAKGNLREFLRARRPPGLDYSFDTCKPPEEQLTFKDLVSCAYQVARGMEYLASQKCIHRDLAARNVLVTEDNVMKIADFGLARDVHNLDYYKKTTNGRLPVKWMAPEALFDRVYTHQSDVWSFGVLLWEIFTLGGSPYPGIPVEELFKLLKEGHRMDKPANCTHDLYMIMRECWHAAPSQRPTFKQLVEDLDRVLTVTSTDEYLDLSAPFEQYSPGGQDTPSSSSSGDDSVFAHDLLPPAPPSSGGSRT
T4 sequence (P11362 22-822): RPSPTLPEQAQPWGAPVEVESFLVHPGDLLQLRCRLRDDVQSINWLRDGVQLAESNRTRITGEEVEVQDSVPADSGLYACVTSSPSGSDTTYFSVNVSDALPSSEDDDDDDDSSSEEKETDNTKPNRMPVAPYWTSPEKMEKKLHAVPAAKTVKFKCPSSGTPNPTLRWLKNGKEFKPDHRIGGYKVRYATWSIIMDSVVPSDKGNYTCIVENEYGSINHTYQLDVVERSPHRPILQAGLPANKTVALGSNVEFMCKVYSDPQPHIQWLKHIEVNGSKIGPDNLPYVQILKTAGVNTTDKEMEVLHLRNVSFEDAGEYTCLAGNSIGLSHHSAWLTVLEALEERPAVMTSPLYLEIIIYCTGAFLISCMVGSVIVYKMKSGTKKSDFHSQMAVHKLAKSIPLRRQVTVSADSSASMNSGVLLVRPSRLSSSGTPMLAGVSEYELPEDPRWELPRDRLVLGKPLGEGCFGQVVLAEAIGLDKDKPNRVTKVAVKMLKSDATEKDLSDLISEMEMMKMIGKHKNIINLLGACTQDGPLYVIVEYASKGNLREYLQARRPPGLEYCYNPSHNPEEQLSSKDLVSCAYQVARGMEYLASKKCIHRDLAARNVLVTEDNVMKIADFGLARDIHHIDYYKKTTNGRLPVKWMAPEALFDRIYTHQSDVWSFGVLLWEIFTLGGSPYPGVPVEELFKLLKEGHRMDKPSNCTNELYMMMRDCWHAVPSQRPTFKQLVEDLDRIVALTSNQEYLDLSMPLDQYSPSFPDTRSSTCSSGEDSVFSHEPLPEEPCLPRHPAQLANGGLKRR
Chain of FGFR2 (Homo sapiens, UniProt P21802) (P21802 22-821, species assumed): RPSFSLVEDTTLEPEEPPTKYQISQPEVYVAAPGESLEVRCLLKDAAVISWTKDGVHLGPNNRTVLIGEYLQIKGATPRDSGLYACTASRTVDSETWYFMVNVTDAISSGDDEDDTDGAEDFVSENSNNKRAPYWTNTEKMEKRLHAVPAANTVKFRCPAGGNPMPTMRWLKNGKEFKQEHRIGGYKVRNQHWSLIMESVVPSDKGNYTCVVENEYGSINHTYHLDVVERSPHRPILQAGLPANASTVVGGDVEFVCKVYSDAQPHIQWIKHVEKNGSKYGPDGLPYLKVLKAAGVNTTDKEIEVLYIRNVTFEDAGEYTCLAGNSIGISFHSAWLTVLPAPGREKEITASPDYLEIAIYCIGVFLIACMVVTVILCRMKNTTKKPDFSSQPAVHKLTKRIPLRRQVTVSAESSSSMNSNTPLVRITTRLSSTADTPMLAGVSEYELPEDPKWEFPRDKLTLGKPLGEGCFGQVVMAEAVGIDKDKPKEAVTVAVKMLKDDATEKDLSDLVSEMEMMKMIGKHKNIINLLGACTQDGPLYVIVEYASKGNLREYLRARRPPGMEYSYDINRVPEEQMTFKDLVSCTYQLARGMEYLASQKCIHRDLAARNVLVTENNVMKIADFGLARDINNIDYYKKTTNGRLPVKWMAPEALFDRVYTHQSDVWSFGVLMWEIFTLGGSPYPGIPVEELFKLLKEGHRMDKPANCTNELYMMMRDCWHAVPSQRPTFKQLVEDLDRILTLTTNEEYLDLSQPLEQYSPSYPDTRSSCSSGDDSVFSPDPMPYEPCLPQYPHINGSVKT
T3 sequence (P17948 27-1338): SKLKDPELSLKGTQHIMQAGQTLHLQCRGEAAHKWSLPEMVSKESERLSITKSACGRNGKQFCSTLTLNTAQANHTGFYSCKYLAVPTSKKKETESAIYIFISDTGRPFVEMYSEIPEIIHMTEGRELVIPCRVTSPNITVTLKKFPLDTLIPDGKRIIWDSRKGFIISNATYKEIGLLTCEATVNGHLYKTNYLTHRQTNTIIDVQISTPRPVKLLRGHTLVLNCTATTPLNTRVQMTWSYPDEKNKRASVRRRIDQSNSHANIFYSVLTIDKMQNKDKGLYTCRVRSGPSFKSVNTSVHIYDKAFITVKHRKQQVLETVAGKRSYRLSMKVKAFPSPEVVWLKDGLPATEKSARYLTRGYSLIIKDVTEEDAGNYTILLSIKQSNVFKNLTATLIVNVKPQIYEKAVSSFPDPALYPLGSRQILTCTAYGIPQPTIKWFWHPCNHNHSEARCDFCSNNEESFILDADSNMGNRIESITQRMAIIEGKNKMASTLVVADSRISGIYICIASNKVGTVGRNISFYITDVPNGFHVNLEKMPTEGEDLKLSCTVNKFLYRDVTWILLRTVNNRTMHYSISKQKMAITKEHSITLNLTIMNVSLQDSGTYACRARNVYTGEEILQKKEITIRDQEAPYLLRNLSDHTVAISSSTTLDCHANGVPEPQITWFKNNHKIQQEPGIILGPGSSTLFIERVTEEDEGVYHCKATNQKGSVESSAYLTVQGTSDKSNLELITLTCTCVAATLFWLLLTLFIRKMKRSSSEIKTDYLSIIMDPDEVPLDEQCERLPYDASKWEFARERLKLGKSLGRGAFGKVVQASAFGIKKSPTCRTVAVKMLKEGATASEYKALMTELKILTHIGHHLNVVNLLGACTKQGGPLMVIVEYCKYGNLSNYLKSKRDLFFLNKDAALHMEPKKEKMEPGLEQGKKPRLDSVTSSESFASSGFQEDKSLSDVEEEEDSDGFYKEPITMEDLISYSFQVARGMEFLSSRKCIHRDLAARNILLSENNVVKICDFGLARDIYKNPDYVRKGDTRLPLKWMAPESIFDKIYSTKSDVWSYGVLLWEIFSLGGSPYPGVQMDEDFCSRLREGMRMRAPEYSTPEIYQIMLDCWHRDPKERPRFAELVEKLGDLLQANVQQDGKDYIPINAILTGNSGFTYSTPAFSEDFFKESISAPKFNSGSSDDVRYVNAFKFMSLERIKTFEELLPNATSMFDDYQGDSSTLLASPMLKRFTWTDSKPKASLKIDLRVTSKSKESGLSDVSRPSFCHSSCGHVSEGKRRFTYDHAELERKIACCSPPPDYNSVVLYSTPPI

Cc1cc2c(F)c(Oc3ncnn4cc(OC[C@@H](C)O)c(C)c34)ccc2[nH]1 [Brivanib, reference compound]
IC50 (HUVEC): 289 nM

Cc1cc([N+](=O)[O-])c(NS(=O)(=O)c2cccc(C(=O)O)c2)cc1-c1cncnc1 [Inhibitor III, 3-(N-(4-methyl-2-nitro-5-(pyrimidin-5-yl)phenyl)sulfamoyl)benzoic acid]
tissue findings (infiltration) [1]: Only insignificant infiltration with single neutrophils

CC1C(=O)Nc2ccccc2N1C(=O)c1cccc(C(=O)O)c1 (stereo not drawn) [Inhibitor IX, 3-(2-methyl-3-oxo-1,2,3,4-tetrahydroquinoxalyne-1-carbonyl)benzoic acid]
IC50 (HUVEC): 32 nM | transmission of the signal from FGFR to FRS2 (FRS2 [2]): interfere with transmission of the signal from FGFR to FRS2

Cc1cc(N)c(NS(=O)(=O)c2cccc(C(=O)O)c2)cc1-c1cncnc1 [Inhibitor V, 3-(N-(2-amino-4-methyl-5-(pyrimidin-5-yl)phenyl)sulfamoyl)benzoic acid]
transmission of the signal from FGFR to FRS2 (FRS2 [2]): interfere with transmission of the signal from FGFR to FRS2

O=C1CN(C(=O)c2cccc(C(=O)O)c2)c2ccccc2N1 [Inhibitor VIII, 3-(3-oxo-1,2,3,4-tetrahydroquinoxaline-1-carbonyl)benzoic acid]
decrease of phosphorylation of PI3K (PI3K): 10 times | decrease of phosphorylation of FGFR2 (weakly) (FGFR2 [3]): 1.5 times | decrease of phosphorylation of FGFR3 (weakly) (FGFR3): 1.8 times | decrease of phosphorylation of VEGFR1 (weakly) (VEGFR1): 2.3 times | level of FGFR1 phosphorylation (FGFR1): even increased | influence on other kinases (p44/42(MAPK), Akt, mTOR): did not have influence on other kinases | decrease of phosphorylation of FRS2 (FRS2 [4]): 14 times

Cc1cc(NNc2cc(C)c(-c3cccnc3)cc2NS(=O)(=O)c2cccc(C(=O)O)c2)c(NS(=O)(=O)c2cccc(C(=O)O)c2)cc1-c1cccnc1 [Inhibitor VI]
phosphorylation of FGFR2 (FGFR2 [5]): did not suppress | IC50 (FRS2α and FRS2β): < 10 nM | suppression of phosphorylation of FRS2α and FRS2β (FRS2α and FRS2β): 12 times | suppression of Shp2 and Grb2 protein phosphorylation (Shp2 and Grb2): more than 10 times | proliferation compared with control group (Snu16 cells; group with phosphorylation suppression of FRS2 and Shp2 and/or Grb2, P < 0.0001): suppression, | proliferation compared with control group (Snu16 cells; group with phosphorylation suppression of FRS2 and without influence on phosphorylation of Shp2 and/or Grb2, P < 0.0001): suppression,

O=C(O)c1cccc(Nc2cccc3ncccc23)c1 [Inhibitor XI, 3-(quinoline-5-ylamine)benzoic acid]
transmission of the signal from FGFR to FRS2 (FRS2 [2]): interfere with transmission of the signal from FGFR to FRS2

Bevacizumab: standard object blocking VEGF-stimulated angiogenesis, 10 mg/kg [reference compound]
angiogenesis stimulated by bFGF [6]: but not angiogenesis induced by bFGF | angiogenesis in the implants containing VEGF [7]: completely blocked

Source: patent US9957236B2, “Selective inhibitors interfering with fibroblast growth factor receptor and FRS2 interaction for the prevention and treatment of cancer and other diseases” (LIMITED LIABILITY COMPANY “RUSSIAN PHARMACEUTICAL …, priority 2014, dated 2018)
